# From PMC3731320, “Identification of Benzimidazole Diamides as Selective Inhibitors of the Nucleotide-Binding Oligomerization Domain 2 (NOD2) Signaling Pathway” (PLoS ONE, 2013)
# “Also recorded” adds a separate entry of the source.
# Experiments:
# NOD2 [1] = assay: MDP-stimulated IL-8 release in 293/hNOD2 cells (HTRF); type: cell-based, human; details: for IC50: Homo sapiens
# Description: After 24 hours the amount of IL-8 secreted into the medium was determined by homogeneous time resolved fluorescence (HTRF) assay by the direct addition of a 1:1 mix of europium cryptate and XL665-conjugated anti-IL-8 antibodies according to the manufacturer's instructions (Cisbio).
# [2] = target: T1, full length human FLAG-6His tagged RIP2 (Homo sapiens, UniProt O43353); assay: RIP2 kinase autophosphorylation assay (ADP-Glo); type: biochemical; details: autophosphorylation of RIPK2; 10 μM ATP
# T1 construct: autophosphorylation of full length human FLAG-6His tagged RIP2; FLAG; 6His; made in house
# Description: Direct effects of compounds on RIP2 kinase activity was determined by autophosphorylation of full length human FLAG-6His tagged RIP2 expressed and purified from baculovirus. Enzyme was pre-incubated with compounds in assay buffer (50 mM HEPES pH 7.5, 25 mM MgCl2, 0.05%[w/v] CHAPS, 1 mM DTT and 0.05 mg/mL BSA) in 384-well plates, and then incubated with 10μM ATP for 2 hours at room temperature. The amount of ADP generated was measured using the ADP-Glo universal ADP detection assay for kinases (Promega) and luminescence quantified on a ViewLux imager.
# 300 human kinases = assay: Kinase panel profiling (Reaction Biology Corp); type: biochemical; details: compound at 1 μM; 10 μM ATP; any kinase of the panel
# Description: The original hit compound identified as a selective inhibitor of the NOD2 pathway was profiled for inhibitory activity against 300 human kinases (Reaction Biology Corp). The compound was tested in duplicate at a single concentration (1 μM) and was pre-incubated with enzyme for 20 minutes prior to addition of 10 μM ATP.
# NOD2 [3] = assay: Western blot of MAPK phosphorylation and IκBα in MDP-stimulated 293/hNOD2 cells; type: cell-based, human; details: GSK669 at 1 and 10 μM
# Description: (§1) Confluent cultures of 293/-hNOD1 and -hNOD2 cells in 24-well plates were serum-starved over-night. The next day, cells were pre-incubated for 1 hour with compound and then stimulated for 1 hour with either 50 μg/mL Tri-DAP or 25 μg/mL MDP, respectively. Whole cell lysates were prepared in 1X cell lysis buffer (Cell Signaling Technology) containing additional inhibitors of aspartic, cysteine and serine proteases and aminopeptidases (protease inhibitor cocktail set III, EMD Biosciences) and inhibitors of multiple phosphatases (phosphatase inhibitor cocktail sets II and III, Sigma-Aldrich). The levels of phosphorylated and total p38, JNK, ERK1/2 and total IκBα were determined by immunoblotting of ∼20 μg protein per sample using the following primary antibodies: phospho-p38 MAPK (12F8, #4631), p38 MAPK (#9212), phospho-JNK (#9251), JNK (#9252) and IκBα (#9242) all purchased from Cell Signaling Technology, and phospho-ERK1/2 (sc-7383) and ERK1/2 (sc-94) antibodies from Santa Cruz Biotechnology.
# NOD1 [4] = assay: Western blot of MAPK phosphorylation and IκBα in Tri-DAP-stimulated 293/hNOD1 cells; type: cell-based, human; details: GSK669 up to 30 μM
# Description: as §1
# NOD2 [5] = assay: MDP-stimulated IL-8 secretion in NOD2 BacMam transduced HEK293T cells; type: cell-based, human
# Description: (§2) Over-expression of NOD1 and NOD2 was achieved by transduction of HEK293T cells with either NOD1 or NOD2 BacMam recombinant baculoviruses. […] The effect of compounds on activator-independent NOD1/2 signaling was determined by 30 minute pre-treatment of cells (in 96-well plates seeded the previous day in DMEM high glucose with 10% FBS at 60,000 cells/well) followed by infection with NOD1 or NOD2 BacMam virus (MOI = 50). IL-8 was measured in conditioned medium after 24 hour incubation at 37 °C. To determine the effect of compounds on NOD1/2 activator-dependent IL-8 secretion in BacMam transduced HEK293T, the cells were infected with virus for 6 hours (MOI = 50), and following the removal of virus the cells were cultured over-night. The next day medium was again replaced and cells pre-treated with compound for 30 minutes followed by stimulation with either MDP (30 ng/mL) or iE-DAP (300 ng/mL). IL-8 was measured in conditioned medium by HTRF after 24-hour incubation at 37 °C.
# NOD1 [6] = assay: IL-8 secretion induced by NOD1 over-expression (BacMam) in HEK293T cells with or without iE-DAP; type: cell-based, human
# Description: as §2
# NOD2 [7] = assay: ssRNA-induced IFNβ gene expression in 293/hNOD2 cells (real-time RT-PCR); type: cell-based, human; details: GSK669 0.16–16 μM, RIP2 inhibitor 0.1 μM, mRNA after 6 hours
# Description: Cells seeded in 96-well plates at sub-confluent density (60,000/well) in DMEM + 1% FBS were transfected for 6 hours with ssRNA40 (1.25–6.67 μg/mL) using lipofectamine 2000 (Invitrogen) and RNA/liposome complexes prepared in Opti-MEM1 medium (Invitrogen). Induction of IFNβ gene expression was measured by real-time reverse transcription PCR (Taqman). RNA was isolated from cell extracts in Trizol (Invitrogen) using the RNeasy kit (Qiagen), and mRNA quantified following reverse transcription and PCR amplification using Taqman reverse transcription and Taqman PCR core reagent kits, pre-formulated primer/probe mixes and ABI 7900 sequence detection system (Applied Biosystems). Expression of IFNβ (ABI primer/probe mix Hs01077958_s1) was normalized to 18S ribosomal RNA.
# HCT116 cells = assay: Uptake of MDP-rhodamine by HCT116 cells (fluorescence microscopy); type: cell-based, human; details: GSK669 up to 20 μM, chlorpromazine 20 μM, 1–4 hour
# Description: HCT116 cells seeded onto glass cover-slips at low density were pre-treated with GSK669 or the endocytosis inhibitor chlorpromazine for 30 minutes before addition of 2.5 μg/mL MDP-rhodamine. Live cells were viewed periodically over 6-hours incubation at 37 °C using a Nikon eclipse TE2000-E fluorescent inverted microscope fitted with a CCTV camera and rhodamine filter.
# NOD2 [8] = assay: MDP-stimulated cytokine release in primary human monocytes; type: cell-based; details: primary human monocytes
# Description: […] The concentration of IL-1β, IL-6 and TNFα in medium samples collected after 24-hour treatment was determined using the MS6000 human pro-inflammatory-4 II tissue culture kit (Meso Scale Discovery). The IL-8 concentration was determined by HTRF.
# T1 sequence (O43353 whole entry): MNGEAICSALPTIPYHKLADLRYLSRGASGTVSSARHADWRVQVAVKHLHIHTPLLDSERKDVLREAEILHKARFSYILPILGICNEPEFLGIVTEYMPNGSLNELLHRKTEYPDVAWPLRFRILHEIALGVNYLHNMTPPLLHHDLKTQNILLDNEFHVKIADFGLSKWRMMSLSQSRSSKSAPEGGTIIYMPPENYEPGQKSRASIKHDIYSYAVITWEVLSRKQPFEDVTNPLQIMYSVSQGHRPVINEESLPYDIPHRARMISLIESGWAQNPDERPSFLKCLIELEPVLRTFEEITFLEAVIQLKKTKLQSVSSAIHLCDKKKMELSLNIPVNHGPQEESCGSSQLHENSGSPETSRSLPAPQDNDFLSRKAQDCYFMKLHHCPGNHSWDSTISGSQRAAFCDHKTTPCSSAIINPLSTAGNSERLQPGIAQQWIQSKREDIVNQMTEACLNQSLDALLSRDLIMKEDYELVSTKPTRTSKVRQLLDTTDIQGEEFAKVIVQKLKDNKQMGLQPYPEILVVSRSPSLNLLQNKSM
smiles,measurement,setting,value
"O=C(Cn1c(CCNC(=O)c2ccccc2)nc2ccccc21)Nc1ccc2c(c1)CCC2 [Compound 1, N-(2-(1-(2-((2,3-dihydro-1H-inden-5-yl)amino)-2-oxoethyl)-1H-benzo[d]imidazol-2-yl)ethyl)benzamide]",IC50,NOD2 [1]; read-out: IC50 293/hNOD2 MDP,3.2 µM
same,IC50,"NOD2 [1]; MDP-stimulated IL-8 production assay in 293/hNOD2 cells, Figures 4 and 5, read-out: NOD2 IC50",3.3 ± 1.6 µM
same,fold less active in the selectivity assays than on the NOD2 pathway,NOD2 [1]; all selectivity assays vs NOD2 IC50,at least 10 fold
same,IC50,[2],> 100 µM
same,"inhibition of kinase activity, panel of 300 human kinases",300 human kinases,≤ 50%
same,"effect on MDP-induced p-p38, p-JNK and total IκBα",NOD2 [3],prevented MDP-induced increases in p-p38 and p-JNK and MDP-induced reduction in total IκBα
same,"effect on Tri-DAP-induced p-p38, p-JNK and total IκBα",NOD1 [4],inactive
same,"effect on MDP response in NOD2 transduced cells, single concentration","NOD2 [5]; HEK293T, 6 hours virus then MDP 30 ng/mL, GSK669 5 μM, IKK inhibitor 0.5 μM",selectively blocked the MDP response
same,IC50,"NOD2 [5]; Homo sapiens, HEK-293T, 6 hours transduction, then MDP 30 ng/mL 24 hours, IL-8, read-out: IC50, MDP response in NOD2 transduced HEK293T cells",0.5 µM
same,"effect on IL-8 secretion induced by NOD1 virus alone, single concentration","NOD1 [6]; MOI 50, 24 hours, GSK669 5 μM, IKK inhibitor 0.5 μM",failed to block IL-8 secretion
same,effect on IL-8 secretion induced by over-expression of NOD1,NOD1 [6]; in the presence or absence of iE-DAP,had no effect
same,effect on ssRNA-induced IFNβ expression,NOD2 [7],unaffected; also recorded: did not block
same,effect on uptake of Rhodamine-MDP into cells,HCT116 cells,unaffected; also recorded: does not block cellular uptake of MDP
same,"effect on MDP-stimulated cytokine secretion, single concentration","NOD2 [8]; compound 5 μM, MDP 0.1 μg/mL, IL-1β, IL-6, IL-8, TNFα, 24 hours",partial inhibition
same,"effect on release of IL-8, IL-6, TNFα and IL-1β in monocytes stimulated with MDP",NOD2 [8]; dose response,dose-dependently inhibited
